The first series concerns apomorphine-induced climbing. The series can be described thus: apomorphine-induced climbing test in mice. It counts as in vivo, CD1 mice. The following applies: Mus musculus; mice, ip. 30 min before apomorphine 2 mg/kg s.c.; read-out: Climbing ED50 (mg/kg ip.). On the procedure:
Anti-apomorphine effects were investigated in the climbing test in mice mediated through the mesolimbic and stereotypy test in rats mediated through the nigrostriatal system. Conventional antipsychotics antagonize both apomorphine-induced behaviours, while known atypical antipsychotics are weaker against apomorphine stereotypy.
The climbing test was carried out according to Protais et al. (Protais, P. et al. Psychopharmacologia, 1976, 50, 1.) Stereotyped behavior was induced in food deprived (for 16 hours) male CD1 mice weighing 20-25 g body by apomorphine HCl (SIGMA) in a s.c. dose of 2 mg/kg. Mice were placed individually into cylinders having 12 cm diameter and consisting of vertical bars of 2 mm diameter where apomorphine treated animals tended to adopt a vertical position in contrary to vehicle treated controls. Test substances were applied ip. 30 min before apomorphine.
10 and 20 min after apomorphine treatment the climbing behaviour was evaluated by scores of 0-2. 10 mice/group were used. The scores of the two readings were summed individually, meaned and compared to the control. The ED50 values were calculated by Litchfield-Wilcoxon's method (Litchfield Jr. J. T., Wilcoxon, F. J. Pharmacol. Exp. Ther. 1949, 96, 49,).
Take `COc1cc2c(cc1OC)C(c1ccc(N)cc1)=NN(c1nccs1)[C@H](C)C2` [Example 112]: the ED50 is 25 mg/kg.

Tested on in the next series: not given
Assay: not given
Settings: not given
As a reminder, the melting point is the temperature of the solid-liquid transition. For the compound `COc1cc2c(cc1OC)C(c1ccc([N+](=O)[O-])cc1)=NN(c1nccs1)C(C)C2` (stereo not drawn) [Example 2], the melting point lay in the range of 151 to 152 °C.

`COc1cc2c(cc1OC)C(c1ccc([N+](=O)[O-])c(C)c1)=NN(c1nccs1)C(C)C2` (stereo not drawn) [Example 3] gave a melting point of 145 to 147 °C.

`COc1cc2c(cc1OC)C(c1ccc([N+](=O)[O-])c(C)c1)=NN(c1nccs1)C(C)C2` (stereo not drawn) [Example 4] yielded a melting point of 172 to 174 °C.

`COc1cc2c(cc1OC)C(c1ccc([N+](=O)[O-])c(Cl)c1)=NN(c1nccs1)C(C)C2` (stereo not drawn) [Example 5] displayed a melting point of 168 to 169 °C.

`COc1cc2c(cc1OC)C(c1ccc([N+](=O)[O-])cc1)=NN(c1nc(C)cs1)C(C)C2` (stereo not drawn) [Example 6] showed a melting point of 194 to 195 °C.

In turn, `COc1cc2c(cc1OC)C(c1ccc([N+](=O)[O-])cc1)=NN(c1ncc(C)s1)C(C)C2` (stereo not drawn) [Example 7] displayed a melting point of 122 to 123 °C.

`COc1cc2c(cc1OC)C(c1ccc([N+](=O)[O-])cc1)=NN(c1nc(C)c(C)s1)C(C)C2` (stereo not drawn) [Example 8] yielded a melting point of 192 to 193 °C.

`COc1cc2c(cc1OC)C(c1ccc([N+](=O)[O-])cc1)=NN(c1nc(C)c(C)s1)C(C)C2` (stereo not drawn) [Example 9] came in with a melting point of 190 to 192 °C.

With `COc1cc2c(cc1OC)C(c1cccc(Cl)c1)=NN(c1nccs1)C(C)C2` (stereo not drawn) [Example 10], the melting point was 125 to 126 °C.

Turning to `COc1cc2c(cc1OC)C(c1ccc([N+](=O)[O-])c(C)c1)=NN(c1nncs1)C(C)C2` (stereo not drawn) [Example 19], the melting point fell in the range of 195 to 196 °C.

The compound `COc1cc2c(cc1OC)C(c1ccc([N+](=O)[O-])c(C)c1)=NN(c1nncs1)C(C)C2` (stereo not drawn) [Example 20] came in with a melting point of 192 to 195 °C.

In the case of `COc1cc2c(cc1OC)C(c1ccc([N+](=O)[O-])c(Cl)c1)=NN(c1nncs1)C(C)C2` (stereo not drawn) [Example 21], the melting point was in the range of 214 to 215 °C.

`COc1cc2c(cc1OC)C(c1ccc([N+](=O)[O-])c(Cl)c1)=NN(c1nncs1)C(C)C2` (stereo not drawn) [Example 22]: the melting point lay in the range of 203 to 206 °C.

Take `COc1cc2c(cc1OC)C(c1cccc(Cl)c1)=NN(c1nncs1)C(C)C2` (stereo not drawn) [Example 23]: the melting point was 86 to 88 °C.

In turn, `COc1cc2c(cc1OC)C(c1ccc(Cl)cc1)=NN(c1nncs1)C(C)C2` (stereo not drawn) [Example 24] showed a melting point of 203 to 204 °C.

In the case of `COc1ccc(C2=NN(c3nncs3)C(C)Cc3cc(OC)c(OC)cc32)cc1OC` (stereo not drawn) [Example 25], the melting point was 173 to 174 °C.

The compound `CCOc1cc2c(cc1OCC)C(c1ccc([N+](=O)[O-])cc1)=NN(c1nncs1)C(C)C2` (stereo not drawn) [Example 26] showed a melting point of 172 to 174 °C.

`COc1cc2c(cc1OC)C(c1ccc([N+](=O)[O-])cc1)=NN(c1nnc(C)s1)C(C)C2` (stereo not drawn) [Example 27] returned a melting point of 228 to 229 °C.

Compound `COc1cc2c(cc1OC)C(c1ccc([N+](=O)[O-])cc1)=NN(c1nnco1)C(C)C2` (stereo not drawn) [Example 29] returned a melting point of 225 to 229 °C.

For `COc1cc2c(cc1OC)C(c1ccc([N+](=O)[O-])cc1)=NN(c1nnc(C)o1)C(C)C2` (stereo not drawn) [Example 30], the melting point lay within 177 to 178 °C.

As for `COc1cc2c(cc1OC)C(c1ccc([N+](=O)[O-])c(C)c1)=NN(C1=NOCS1)C(C)C2` (stereo not drawn) [Example 35], the melting point lay within 180 to 182 °C.

The compound `COc1cc2c(cc1OC)C(c1ccc(F)cc1)=NN(C1=NOCS1)C(C)C2` (stereo not drawn) [Example 36] had a melting point of 186 to 191 °C.

As to `COc1cc2c(cc1OC)C(c1ccccc1)=NN(C1=NOCS1)C(C)C2` (stereo not drawn) [Example 37], the melting point lay within 170 to 173 °C.

Regarding `COc1cc2c(cc1OC)C(c1ccc([N+](=O)[O-])cc1)=NN(c1ncon1)C(C)C2` (stereo not drawn) [Example 40], the melting point lay within 213 to 214 °C.

`COc1cc2c(cc1OC)C(c1ccc([N+](=O)[O-])cc1)=NN(c1ncon1)C(C)C2` (stereo not drawn) [Example 41] yielded a melting point of 190 to 192 °C.

Turning to `COc1cc2c(cc1OC)C(c1ccc([N+](=O)[O-])c(Cl)c1)=NN(c1ncon1)C(C)C2` (stereo not drawn) [Example 45], the melting point was in the range of 227 to 230 °C.

In turn, `COc1cc2c(cc1OC)C(c1ccc([N+](=O)[O-])c(Cl)c1)=NN(c1ncon1)C(C)C2` (stereo not drawn) [Example 46] returned a melting point of 206 to 208 °C.

`COc1cc2c(cc1OC)C(c1ccc([N+](=O)[O-])c(C)c1)=NN(c1noc(C)n1)C(C)C2` (stereo not drawn) [Example 47] yielded a melting point of 206 to 208 °C.

In turn, `COc1cc2c(cc1OC)C(c1ccc([N+](=O)[O-])cc1)=NN(c1noc(C)n1)C(C)C2` (stereo not drawn) [Example 48] returned a melting point of 197 to 199 °C.

As for `COc1cc2c(cc1OC)C(c1ccc(Cl)cc1)=NN(c1ncon1)C(C)C2` (stereo not drawn) [Example 49], the melting point was 210 to 212 °C.

`COc1cc2c(cc1OC)C(c1ccc(F)cc1)=NN(c1ncon1)C(C)C2` (stereo not drawn) [Example 50] showed a melting point of 217 to 220 °C.

In the case of `COc1cc2c(cc1OC)C(c1ccccc1)=NN(c1ncon1)C(C)C2` (stereo not drawn) [Example 51], the melting point was in the range of 215 to 216 °C.

The compound `CCOc1cc2c(cc1OCC)C(c1ccc([N+](=O)[O-])cc1)=NN(c1ncon1)C(C)C2` (stereo not drawn) [Example 52] yielded a melting point of 158 to 162 °C.

Compound `COc1ccc(C2=NN(c3ncon3)C(C)Cc3cc(OC)c(OC)cc32)cc1OC` (stereo not drawn) [Example 53] displayed a melting point of 188 to 189 °C.

`CNC(=O)N1N=C(c2cc(C)c([N+](=O)[O-])c(C)c2)c2cc(OC)c(OC)cc2CC1C` (stereo not drawn) [Example 77] gave a melting point of 158 to 160 °C.

Compound `CCNC(=O)N1N=C(c2ccc([N+](=O)[O-])c(C)c2)c2cc(OC)c(OC)cc2CC1C` (stereo not drawn) [Example 80] displayed a melting point of 149 to 150 °C.

For `CCOc1cc2c(cc1OCC)C(c1ccc([N+](=O)[O-])cc1)=NN(C(=O)NC)C(C)C2` (stereo not drawn) [Example 93], the melting point lay within 188 to 189 °C.

`COc1cc2c(cc1OC)C(c1ccc(N)cc1)=NN(c1ncon1)[C@H](C)C2` [Example 103]: the melting point lay within 239 to 242 °C.

Consider `COc1cc2c(cc1OC)C(c1ccc(N)c(C)c1)=NN(c1ncon1)[C@@H](C)C2` [Example 105], for which the melting point was 136 to 138 °C.

With `COc1cc2c(cc1OC)C(c1ccc(N)c(C)c1)=NN(c1noc(C)n1)[C@H](C)C2` [Example 106], the melting point was 105 to 108 °C.

`COc1cc2c(cc1OC)C(c1ccc(N)c(Cl)c1)=NN(c1ncon1)[C@H](C)C2` [Example 107]: the melting point lay within 108 to 110 °C.

Regarding `COc1cc2c(cc1OC)C(c1ccc(N)cc1)=NN(c1nncs1)[C@H](C)C2` [Example 108], the melting point lay within 159 to 160 °C.

Compound `COc1cc2c(cc1OC)C(c1ccc(N)cc1)=NN(c1nncs1)[C@@H](C)C2` [Example 109] came in with a melting point of 160 to 162 °C.

For the compound `COc1cc2c(cc1OC)C(c1ccc(N)c(Cl)c1)=NN(c1nncs1)[C@H](C)C2` [Example 111], the melting point is 129 to 134 °C.

In turn, `COc1cc2c(cc1OC)C(c1ccc(N)cc1)=NN(c1nccs1)[C@H](C)C2` [Example 112] came in with a melting point of 229 to 230 °C.

Turning to `COc1cc2c(cc1OC)C(c1ccc(N)cc1)=NN(c1nc(C)c(C)s1)[C@H](C)C2` [Example 113], the melting point lay in the range of 122 to 124 °C.

The compound `COc1cc2c(cc1OC)C(c1ccc(N)c(C)c1)=NN(c1nccs1)[C@H](C)C2` [Example 114] showed a melting point of 116 to 118 °C.

`COc1cc2c(cc1OC)C(c1ccc(N)c(Cl)c1)=NN(c1nccs1)[C@H](C)C2` [Example 115] came in with a melting point of 116 to 117 °C.

Turning to `COc1cc2c(cc1OC)C(c1ccc(N)c(Cl)c1)=NN(C1=NCCS1)[C@H](C)C2` [Example 116], the melting point lay in the range of 232 to 234 °C.

`COc1cc2c(cc1OC)C(c1ccc(N)c(C)c1)=NN(C1=NOCS1)[C@H](C)C2` [Example 118] registered a melting point of 194 to 197 °C.

For the compound `COc1cc2c(cc1OC)C(c1ccc(N)cc1)=NN(C1=NOCS1)[C@@H](C)C2` [Example 119], the melting point is 134 to 135 °C.

Regarding `CONC(=O)N1N=C(c2ccc(N)cc2)c2cc(OC)c(OC)cc2C[C@H]1C` [Example 135], the melting point was 143 to 145 °C.

For the compound `COc1cc2c(cc1OC)C(c1ccc(NC(C)=O)cc1)=NN(c1nccs1)C(C)C2` (stereo not drawn) [Example 181], the melting point fell in the range of 130 to 134 °C.

The compound `COc1cc2c(cc1OC)C(c1ccc(NC(C)=O)c(C)c1)=NN(c1nccs1)C(C)C2` (stereo not drawn) [Example 182] had a melting point of 209 to 211 °C.

Turning to `COc1cc2c(cc1OC)C(c1ccc(NC(C)=O)cc1)=NN(c1nc(C)c(C)s1)[C@H](C)C2` [Example 184], the melting point was in the range of 238 to 239 °C.

Compound `COc1cc2c(cc1OC)C(c1ccc(NC(C)=O)c(C)c1)=NN(c1nccs1)[C@H](C)C2` [Example 185] came in with a melting point of 229 to 231 °C.

Compound `COc1cc2c(cc1OC)C(c1ccc(NC(C)=O)c(Cl)c1)=NN(c1nccs1)[C@H](C)C2` [Example 186] registered a melting point of 213 to 215 °C.

As for `COc1cc2c(cc1OC)C(c1ccc(NC(C)=O)cc1)=NN(c1nncs1)C(C)C2` (stereo not drawn) [Example 187], the melting point is 150 to 151 °C.

Turning to `CNC(=O)Nc1ccc(C2=NN(c3nncs3)C(C)Cc3cc(OC)c(OC)cc32)cc1` (stereo not drawn) [Example 191], the melting point lay within 160 to 162 °C.

The record behind these values is patent US20080269202A1, “Novel 2,3-benzodiazepine derivatives and their use as antipsychotic agents” (Teva Pharmaceutical Industries Ltd., priority 2007, published 2008).
